Assays:
[1] = molecular target: T1, streptavidin (Streptomyces avidinii, UniProt P22629); assay: Stability of streptavidin immobilized on gold slides after exposure to a liquid crystal (binding of fluorescently labeled biotin); settings: 2 hrs incubation
T1 construct: purchased Pierce Biotechnology

[2] = Optical microscopy of aqueous β-peptide solutions between crossed polarizing filters (birefringence = LC phase formation); assay type: physicochemical; settings: aqueous solution
Text: The inventors used optical microscopy for initial evaluation of aqueous solutions of 1-5. For each β-peptide, aqueous solutions of varying concentration were drawn into microcapillaries and examined between crossed polarizing filters at room temperature (FIGS. 1 and 3). In such experiments, the observation of birefringence is taken as evidence of LC phase formation. […] Increasing β-peptide length by one triad, to generate 3, led to LC behavior at lower concentrations, as shown by the image obtained for a 10 wt % sample (61 mM, FIG. 1C). […] Thus, self-assembly of the chiral helix formed by 3 induced a helical ordering of molecules in the LC phase whereas the two-turn, chiral helix formed by 2 was unable to induce this higher ordered phase.
β-Peptides were weighed into glass vials, diluted to the desired concentration with water, and left on an oscillatory shaker overnight to ensure dissolution. β-peptide solutions were then drawn into a 2 μL microcapillary (Drummond), and the ends were sealed with a high viscosity vacuum grease (Dow-Corning) Microcapillaries were placed on a glass slide and imaged on an Olympus BX-60 microscope (Tokyo, Japan) in transmission mode between crossed polarizing filters using a digital camera (Olympus C2020 Zoom). […] Temperature was recorded from a thermostat but was not further calibrated.
Materials and Methods • Materials. […] Solvent A and Solvent B for RP-HPLC were 0.1% trifluoroacetic acid (TFA) in Millipore water and 0.1% TFA in acetonitrile, respectively. β-peptide purity was assessed using a Vydac C18 analytical column using a flow rate of 1 mL/min from 10-60% B over 50 minutes monitoring at 220 and 273 nm. • MALDI-TOF-MS (matrix-assisted laser desorption-ionization-time-of-flight mass spectrometry) data were collected on a Bruker REFLEX II spectrometer with a 337 nm laser using α-cyano-4-hydroxycinnamic acid as matrix. […] To assess the upper limit of concentration, a 1 μL droplet of a concentrated peptide solution was allowed to slowly evaporate while being monitored for birefringence. […]

T1 sequence (P22629 25-183): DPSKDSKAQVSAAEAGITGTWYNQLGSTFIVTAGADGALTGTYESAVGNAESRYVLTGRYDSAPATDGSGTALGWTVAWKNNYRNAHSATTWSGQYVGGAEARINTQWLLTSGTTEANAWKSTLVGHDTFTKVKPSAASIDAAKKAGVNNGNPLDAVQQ

## pentanoyl-NH-β^3hTyr-(ACHC-ACHC-β^3hLys)3 [pentanoyl-β^3hTyr-(ACHC-ACHC-β^3hLys)3]
[1]; 1 wt %
  state of immobilized streptavidin after incubation with the liquid crystal: streptavidin is still able to bind biotin

## β^3-hTyr-(ACHC-β^3-hPhe-β^3-hLys)3 scram
[2]
  LC phase formation / birefringence (result in words): strong birefringence

## NCCCC[C@@H](CC(N)=O)NC(=O)C[C@H](Cc1ccccc1)NC(=O)[C@H]1CCCC[C@@H]1NC(=O)C[C@H](CCCCN)NC(=O)C[C@H](Cc1ccccc1)NC(=O)[C@H]1CCCC[C@@H]1NC(=O)C[C@H](CCCCN)NC(=O)C[C@H](Cc1ccccc1)NC(=O)[C@H]1CCCC[C@@H]1NC(=O)C[C@@H](N)Cc1ccc(O)cc1 [β-peptide iso-A]
[2]
  solubility limit: > 10 wt %

## β^3-hTyr-(ACHC-ACHC-β^3-hLys)2 [β-peptide 2]
[2]; room temperature, 2 at 19 wt %, 3 at 10 wt %
  type of LC phase suggested by optical texture: nematic

## O=C([O-])c1cc(=O)c2c(OCC(O)COc3cccc4oc(C(=O)[O-])cc(=O)c34)cccc2o1.[Na+].[Na+] [disodium chromoglycate]
[1]; 16 wt %
  state of immobilized streptavidin after incubation with the liquid crystal: streptavidin is still able to bind biotin

## CCCCCCCCCCOS(=O)(=O)[O-].[Na+] [sodium decyl sulfate]
[1]; 32 wt %
  state of immobilized streptavidin after incubation with the liquid crystal: the protein is denatured

Source: patent US8021570B2, “β-peptide lyotropic liquid crystals and methods of manufacture and use thereof” (Wisconsin Alumni Research Foundation, priority 2006, dated 2011)
